Several values for one entry are separate records, joined by “and”; a condition that tells them apart may be missing. Equal values may be shown once. Toxic doses and inconclusive results are not listed. The calls were made as follows: active = survival T/C of 150% or more; inactive = T/C below 125% in these data.
System: P388 leukemia ip, CD2F1 mice, survival T/C
Experiment: NCI In Vivo Anticancer Drug Screen. Data for tumor model P388 Leukemia (intraperitoneal) in CD2F1 (CDF1) mice
Conditions: endpoint: median survival time, higher = longer survival
Summary of the method: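 Mice carrying the transplanted tumor received test compound or vehicle. Survival was recorded in each group, and the value is the treated-group measurement divided by that of the vehicle-treated control group.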

[1] = dose: 50.0 mg/kg/injection, schedule: Q01DX009 (ip), vehicle: saline with Tween-80
[2] = dose: 100.0 mg/kg/injection, schedule: Q01DX009 (ip), vehicle: saline with Tween-80
[3] = dose: 50.0 mg/kg/injection, schedule: Q01DX009 (ip), vehicle: Klucel (hydroxypropylcellulose) (HPC)
[4] = dose: 100.0 mg/kg/injection, schedule: Q01DX009 (ip), vehicle: Klucel (hydroxypropylcellulose) (HPC)
[5] = dose: 200.0 mg/kg/injection, schedule: Q01DX009 (ip), vehicle: Klucel (hydroxypropylcellulose) (HPC)
[6] = dose: 6.25 mg/kg/injection, schedule: Q01DX009 (ip), vehicle: saline with Tween-80
[7] = dose: 12.5 mg/kg/injection, schedule: Q01DX009 (ip), vehicle: saline with Tween-80
[8] = dose: 25.0 mg/kg/injection, schedule: Q01DX009 (ip), vehicle: saline with Tween-80
[9] = dose: 60.0 mg/kg/injection, schedule: Q01DX005 (ip), vehicle: saline with Tween-80
[10] = dose: 120.0 mg/kg/injection, schedule: Q01DX005 (ip), vehicle: saline with Tween-80
[11] = dose: 240.0 mg/kg/injection, schedule: Q01DX005 (ip), vehicle: saline with Tween-80
[12] = dose: 50.0 mg/kg/injection, schedule: Q01DX005 (ip), vehicle: Klucel (hydroxypropylcellulose) (HPC)
[13] = dose: 100.0 mg/kg/injection, schedule: Q01DX005 (ip), vehicle: Klucel (hydroxypropylcellulose) (HPC)
[14] = dose: 200.0 mg/kg/injection, schedule: Q01DX005 (ip), vehicle: Klucel (hydroxypropylcellulose) (HPC)

Measured: T/C

Clc1ccc(N=C(c2ccncc2)c2cc(Cl)ccc2Cl)cc1
inactive: [1] 109 % of control | [2] 92 % of control

NC(=O)CC1(c2ccccc2)CCCCC1
inactive: [1] 111 % of control | [2] 102 % of control | dose: 200.0 mg/kg/injection, schedule: Q01DX009 (ip), vehicle: saline with Tween-80 104 % of control

O=C(NCCCN1CCOCC1)Nc1ccc(Cc2ccc(NC(=O)NCCCN3CCOCC3)cc2)cc1
inactive: [3] 94 % of control | [4] 94 % of control | [5] 94 % of control

CN(C)C(=O)N1OC2CCC1CC2
inactive: dose: 60.0 mg/kg/injection, schedule: Q01DX005 (ip), vehicle: saline 100 % of control | dose: 120.0 mg/kg/injection, schedule: Q01DX005 (ip), vehicle: saline 100 % of control | dose: 240.0 mg/kg/injection, schedule: Q01DX005 (ip), vehicle: saline 100 % of control

Cc1c(C=[N+]2CCCCC2)c2ccccc2n1C
inactive: [6] 100 % of control | [7] 109 % of control | [8] 109 % of control and 120 % of control | [1] 104 % of control and 118 % of control | [2] 103 % of control

O=C(O)c1cccc2cccc(-c3c4ccc(=O)cc-4oc4cc(O)ccc34)c12
inactive: [9] 101 % of control | [10] 100 % of control | [11] 98 % of control

CCCCNCCC(SSSC(CCNCCCC)c1ccc(Cl)cc1)c1ccc(Cl)cc1 (centres undefined)
inactive: [6] 100 % of control | [7] 100 % of control | [8] 90 % of control

CCCCNc1ccc2nnc(C)n2n1
inactive: [12] 103 % of control | dose: 100.0 mg/kg/injection, schedule: Q01DX005 (ip), vehicle: DMSO 98 % of control | [13] 108 % of control | dose: 200.0 mg/kg/injection, schedule: Q01DX005 (ip), vehicle: DMSO 104 % of control | [14] 100 % of control

CCN(CC)c1ccc2cc(-c3nc4ccccc4n3C)c(=O)oc2c1
active: dose: 200.0 mg/kg/injection, schedule: Q04DX003 (ip), vehicle: Klucel (hydroxypropylcellulose) (HPC) 183 % of control

CC(C)(C)C(=O)CC(=O)C(C)(C)C.[Cu]
inactive: dose: 100.0 mg/kg/injection, schedule: Q04DX003 (ip), vehicle: saline with Tween-80 94 % of control | dose: 200.0 mg/kg/injection, schedule: Q04DX003 (ip), vehicle: saline with Tween-80 101 % of control

Cc1c(N2CCCC2)cc2c(c1NC(=O)c1ccccc1Cl)C(C)(C)CC2(C)C
inactive: [3] 99 % of control | [4] 100 % of control | [5] 99 % of control

NC(=O)CC(N)CO (centres undefined)
inactive: dose: 50.0 mg/kg/injection, schedule: Q01DX009 (ip), vehicle: saline 100 % of control | dose: 100.0 mg/kg/injection, schedule: Q01DX009 (ip), vehicle: saline 100 % of control | dose: 200.0 mg/kg/injection, schedule: Q01DX009 (ip), vehicle: saline 103 % of control | dose: 400.0 mg/kg/injection, schedule: Q01DX009 (ip), vehicle: saline 101 % of control

CC1C=CCC2C(=O)c3cccc([N+](=O)[O-])c3C(=O)C12 (centres undefined)
inactive: [12] 100 % of control | [13] 96 % of control | [14] 92 % of control

Cc1ccc(-c2cn3nc(-c4ccc5c(c4)OCO5)sc3n2)cc1
inactive: [9] 92 % of control | [10] 99 % of control and 89 % of control | [11] 87 % of control

CCN(CC)C(C)=S
inactive: [9] 103 % of control | [10] 110 % of control | [11] 104 % of control

[NH-]C(CO)C(O)c1ccccc1.[NH-]C(CO)C(O)c1ccccc1.[NH-]C(CO)C(O)c1ccccc1.[Pr+3] (centres undefined)
inactive: [12] 103 % of control | [13] 97 % of control | [14] 99 % of control

Reference: PubChem BioAssay AID330 (DTP/NCI, 2004)
